Assay results: US20060205679A1, “Topical and oral formulations of cardiac glycosides for treating skin diseases” (Azaya Therapeutics, Inc., priority 2004, published 2006)

Assays:
[1] = system: cultered cancer cell lines; conditions: cited from earlier work
[2] = system: human malignant cell lines; conditions: rapidly proliferating normal cells not affected; cited from earlier work
[3] = system: primary cultures of tumor cells from patients and a human cell line panel; conditions: cited from earlier work
[4] = system: androgen independent human prostate cancer cell lines; conditions: in-vitro; cited from earlier work
[5] = system: NF-κB; conditions: cited from earlier work
[6] = system: murine cancer cells; conditions: cited from earlier work
[7] = system: AP-1; conditions: cited from earlier work
[8] = system: c-Jun NH2-terminal kinase; conditions: cited from earlier work
[9] = in 50 ml of 9.6% solution of hydroxypropyl-β-cyclodextrin, 70 to 80° C.
Description: 200 mg of oleandrin was weighed and placed in a sterile test tube. The oleandrin was dissolved in 3 to 5 mL of purified absolute ethanol. […] The ethanolic solution of oleandrin was slowly added to the beaker with stirring. […] The solution was sterile-filtered through a 0.22 μm filter. The solution was frozen below −40° C. and lyophilized.
500 mg of digitoxin was weighed and placed in a sterile test tube. […] The ethanolic solution of digitoxin was slowly added to the beaker with stirring. […] The solution was sterile-filtered through a 0.22 μm filter. The solution was frozen below −40° C. and lyophilized.
200 mg of proscillaridin-A was weighed and placed in a sterile test tube and was dissolved in 5 to 10 mL of purified absolute ethanol. […] The ethanolic solution of proscillaridin-A was slowly added to the beaker with stirring. […] The solution was sterile filtered through a 0.22 μm filter. The solution was frozen below −40° C. and lyophilized.

[10] = system: FGF-2 release from DU145 cells; conditions: oleandrin 0.1 ng/mL; cited from earlier work
[11] = cited from earlier work
[12] = system: human cancer cells; conditions: cited from earlier work
[13] = system: FGF-2 release from PC3 cells; conditions: oleandrin 0.1 ng/mL; cited from earlier work

SMILES: CO[C@@H]1C[C@H](O[C@H]2CC[C@@]3(C)[C@H](CC[C@@]45O[C@@]46CC[C@H](C4=CC(=O)OC4)[C@@]6(C)CC[C@H]35)C2)O[C@H](C)[C@@H]1O [adynerin]
- anti-cancer activity [1]: significant anti-cancer activity

SMILES: C[C@H]1O[C@@H](O[C@H]2[C@@H](O)C[C@H](O[C@H]3[C@@H](O)C[C@H](O[C@H]4CC[C@@]5(C)[C@H](CC[C@@H]6[C@@H]5CC[C@]5(C)[C@@H](C7=CC(=O)OC7)CC[C@]65O)C4)O[C@@H]3C)O[C@@H]2C)C[C@H](O)[C@@H]1O [digitoxin]
- growth and apoptosis at non-toxic concentrations [2]: inhibit growth and induce apoptosis

SMILES: C[C@H]1O[C@@H](O[C@H]2[C@@H](O)C[C@H](O[C@H]3[C@@H](O)C[C@H](O[C@H]4CC[C@@]5(C)[C@H](CC[C@@H]6[C@@H]5C[C@@H](O)[C@]5(C)[C@@H](C7=CC(=O)OC7)CC[C@]65O)C4)O[C@@H]3C)O[C@@H]2C)C[C@H](O)[C@@H]1O [digoxin]
- selective toxicity against solid or hematological tumor cells from patients [3]: selective toxicity against solid tumor cells
- growth and apoptosis at non-toxic concentrations [2]: inhibit growth and induce apoptosis
- induction of apoptosis [4]: induce apoptosis

SMILES: CO[C@H]1C[C@H](O[C@H]2CC[C@@]3(C)[C@H](CC[C@@H]4[C@@H]3CC[C@]3(C)[C@@H](C5=CC(=O)OC5)[C@@H](OC(C)=O)C[C@]43O)C2)O[C@@H](C)[C@@H]1O [oleandrin, 16β-acetoxy-3β-[(2,6 dideoxy-3-0-methyl-α2-L-arabino-hexopyranosyl)oxy]-14-hydroxy-5β, 14β-card-20(22)-enolide]
- NF-κB activation induced by phorbol esters and bacterial lipopolysaccharide [5]: blocked
- NF-κB-dependent reporter gene transcription activated by TNF [5]: suppressed
- TNF induced activation of NF-κB ([5]; concentration and time dependent): blocked
- toxicity to murine cancer cells [6]: not toxic
- AP-1 activation induced by TNF and other stimuli [7]: blocked
- TNF induced activation of c-Jun NH2-terminal kinase [8]: inhibited
- amount effectively solubilized [9]: 200 mg
- inhibition of FGF-2 release [10]: 49.9%
- solubility in organic solvents ([11]; ethanol and chloroform): soluble
- stability with respect to heat ([11]; heat): heat stable
- stability with respect to light ([11]; light): unstable
- solubility in water ([11]; water): almost insoluble
- ability to kill human cancer cells [12]: able to kill
- inhibition of FGF-2 release [13]: 45.7%
- anti-cancer activity [1]: significant anti-cancer activity
- induction of apoptosis [4]: induce apoptosis

SMILES: C[C@@H]1O[C@@H](O[C@H]2C[C@@H](O)[C@]3(CO)[C@H]4[C@H](O)C[C@]5(C)[C@@H](C6=CC(=O)OC6)CC[C@]5(O)[C@@H]4CC[C@]3(O)C2)[C@H](O)[C@H](O)[C@H]1O [ouabain]
- induction of apoptosis [4]: induce apoptosis

SMILES: C[C@@H]1O[C@@H](O[C@@H]2C=C3CC[C@@H]4[C@H](CC[C@]5(C)[C@@H](c6ccc(=O)oc6)CC[C@]45O)[C@@]3(C)CC2)[C@H](O)[C@H](O)[C@H]1O [proscillaridin-A, Proscillaridin A, reference compound]
- selective toxicity against solid or hematological tumor cells from patients [3]: no selective toxicity
- amount effectively solubilized [9]: 200 mg

SMILES: C[C@H]1[C@H](C)CC[C@]2(C(=O)O)CC[C@]3(C)C(=CC[C@@H]4[C@@]5(C)CC[C@H](O)C(C)(C)[C@@H]5CC[C@]43C)[C@H]12 [ursolic acid]
- anti-cancer activity [1]: significant anti-cancer activity
